Measured values: publication PMC5852967, “Specific features of L-histidine production by Escherichia coli concerned with feedback control of AICAR formation and inorganic phosphate/metal transport” (Microbial Cell Factories, 2018)
pKi: −log10 of the molar value.

Experiments:
Type in all cases: biochemical
[1] = molecular target: T1, HisG^E271K feedback-resistant ATP-phosphoribosyltransferase (Escherichia coli, UniProt P60757, E271K); assay: PR-ATP formation at […] nm with purified enzyme; % inhibition at […]; details: read-out: Inhibition, % / AICAR / 1 mM
T1 construct: His6-tagged HisG^E271K (HT-HisG^E271K)

[2] = molecular target: T2, ATP-phosphoribosyltransferase (ATP-PRT, HisG) (Escherichia coli, UniProt P60757); assay: PR-ATP formation at […] nm with purified enzyme; Lineweaver–Burk plot
T2 construct: N-terminal His6-Tag HisG (HT-HisG)
T2 sequence (P60757 1-299): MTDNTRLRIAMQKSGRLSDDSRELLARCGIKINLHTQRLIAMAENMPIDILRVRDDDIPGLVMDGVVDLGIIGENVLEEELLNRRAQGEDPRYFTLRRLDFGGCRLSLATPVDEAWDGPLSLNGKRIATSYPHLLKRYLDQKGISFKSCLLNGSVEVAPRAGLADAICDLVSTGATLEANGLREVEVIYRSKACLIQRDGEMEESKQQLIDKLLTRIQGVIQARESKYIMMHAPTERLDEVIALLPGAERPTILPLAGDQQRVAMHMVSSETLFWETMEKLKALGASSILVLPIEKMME

[3] = molecular target: T2, ATP-phosphoribosyltransferase (ATP-PRT, HisG); assay: PR-ATP formation at […] nm from ATP and PRPP with purified enzyme

| Compound | inhibition at 1000 µM [1] | pKi [2] | PR-ATP formation at 290 nm from ATP and PRPP with purified enzyme [3] |
| --- | --- | --- | --- |
| NC(=O)c1ncn([C@@H]2O[C@H](COP(=O)(O)O)[C@@H](O)[C@H]2O)c1N [AICAR, 5-aminoimidazole-4-carboxamide-1-beta-D-ribofuranosyl 5′-monophosphate] | 52% | 3.19 | – |
| Nc1ncnc2c1ncn2[C@@H]1O[C@H](COP(=O)(O)O)[C@@H](O)[C@H]1O [AMP] | – | 2.67 | – |
| Nc1ncnc2c1ncn2[C@@H]1O[C@H](COP(=O)(O)OP(=O)(O)OP(=O)(O)O)[C@@H](O)[C@H]1O [ATP] | – | – | Both tested substances compete with ATP in HisG-catalyzed reactions |
